This is an account of results in patent US11028090B2 (Dong Wha Pharm. Co., Ltd., priority 2017, dated 2021).

Structures can show the parent of a compound that is named as a salt. Where two headings read alike, the source gives them in different places. Where only a bound is given, the exact number is not on record here.

This assay deals with BRD4 (BD1+BD2) bromodomain (Homo sapiens (Human), UniProt O60885). Nature of the assay: BRD4 binding inhibition (AlphaScreen, GST-BRD4 vs tetraacetylated histone H4 peptide). How it is done: A mixture comprising 100 nM GST-BRD4 (BD1+BD2) and 100 nM biotinylated acetyl-histone H4 (Lys5,8,12,16) peptide was prepared in assay buffer (50 mM HEPES pH 7.4; 25 mM NaCl; 0.05% Tween 20; 0.1% bovine serum albumin (BSA); 10 mM dithiothreitol (DTT)). After adding 6 μl of the mixture to the diluent, 6 μl of the pre-mixed AlphaLISA Glutathione Acceptor Beads and AlphaScreen Streptavidin Donor Beads (PerkinElmer, 10 μg/ml in assay buffer, respectively) was added thereto. The samples were incubated in the dark at room temperature for 30 minutes (shaking at 300 rpm). Then, the signals were measured with PerkinElmer Envision HTS Multilabel Reader using an alpha screen protocol of PerkinElmer. Each plate contained the negative control in which biotinylated acetyl-histone H4 peptide and GST-BRD4 (BD1+BD2) were replaced by assay buffer. In the case of using the software GraphPad Prism for calculation, the negative control point was input as a low standard value. The positive control (probe molecule l-BET762 containing protein/peptide mixture) proceeded to pipetting.

Setting [1] is: GST-BRD4 (BD1+BD2) vs biotinylated acetyl-histone H4 peptide, AlphaScreen, read-out: BRD4 IC50.
[2] abbreviates: GST-BRD4 (BD1+BD2) / biotinylated acetyl-histone H4 (Lys5,8,12,16) peptide, read-out: IC50, BRD4 binding inhibition.

In the case of `Cc1cc2nc(NCCCCNC(=O)OC(C)(C)C)c3nnc(C)n3c2cc1C` [Example 34, [4-(1,7,8-trimethyl-[1,2,4]triazolo[4,3-a]quinoxaline-4-ylamino)-butyl]-carbamic acid-tert-butylester], under setting [1], the IC50 worked out at 81 nM.
Take `Cc1nnc2c(NCCCCC(=O)NC(C)C)nc3ccccc3n12` [Example 659, 5-(1-methyl-[1,2,4]triazolo[4,3-a]quinoxaline-4-ylamino)-pentanoic acid isopropylamide]: the IC50 under setting [1] is 75 nM.
For the compound `Cc1nnc2c(NCCCCNC(=O)CC(C)C)nc3cc(C(=O)O)ccc3n12` [Example 201, 1-methyl-4-[4-(3-methyl-butyrylamino)-butylamino]-[1,2,4]triazolo[4,3-a]quinoxaline-7-carboxylic acid], the half-inhibitory concentration (IC50) runs as follows: under setting [2], no more than 50 nM; under setting [1], 26 nM.
Consider `COc1cc(C(F)(F)F)cc2c1nc(NCCCCNC(=O)CC(C)C)c1nnc(C)n12` [Example 145, N-[4-(6-methoxy-1-methyl-8-trifluoromethyl-[1,2,4]triazolo[4,3-a]quinoxaline-4-ylamino)-butyl]-3-methyl-butyramide], for which the IC50 by setting is: under setting [2], no more than 50 nM; under setting [1], 47 nM.
Turning to `COCCOc1ccc2c(c1)nc(NCCCCNC(=O)N1CCOCC1)c1nnc(C)n12` [Example 425, morpholine-4-carboxylic acid-{4-[7-(2-methoxy-ethoxy)-1-methyl-[1,2,4]triazolo[4,3-a]quinoxaline-4-ylamino]-butyl}-amide], the IC50 under setting [2] was no more than 50 nM and the IC50 under setting [1] was 28 nM.
In the same order, the values of `COc1cc2nc(NCCCCNC(=O)OCC(C)C)c3nnc(C)n3c2cc1C(F)(F)F` [Example 474, [4-(7-methoxy-1-methyl-8-trifluoromethyl-[1,2,4]triazolo[4,3-a]quinoxaline-4-ylamino)-butyl]-carbamic acid isobutylester] are no more than 50 nM and 44 nM.
As for `COc1cc2c(nc(NCCCCNC(=O)CC(C)C)c3nnc(C)n32)c(OC)c1OC` [Example 195, 3-methyl-N-[4-(6,7,8-trimethoxy-1-methyl-[1,2,4]triazolo[4,3-a]quinoxaline-4-ylamino)-butyl]-butyramide], the IC50 under setting [1] amounted to 69 nM.
As to `COc1cc2nc(NCCCCNC(=O)CC(C)C)c3nnc(C)n3c2cc1Cc1ccc([N+](=O)[O-])cc1` [Example 339, N-{4-[7-methoxy-1-methyl-8-(4-nitro-benzyl)-[1,2,4]triazolo[4,3-a]quinoxaline-4-ylamino]-butyl}-3-methyl-butyramide], the IC50 by setting is: under setting [2], no more than 50 nM; under setting [1], 46 nM.
Regarding `COc1cc2nc(NCCCCNC(=O)CC(C)C)c3nnc(C)n3c2c(OC)c1OC` [Example 488, 3-methyl-N-[4-(7,8,9-trimethoxy-1-methyl-[1,2,4]triazolo[4,3-a]quinoxaline-4-ylamino)-butyl]-butyramide], the IC50 was no more than 50 nM under setting [2] and 35 nM under setting [1].
As to `COc1ccc2c(c1)nc(NCCCCNC(=O)N(C)C)c1nnc(C)n12` [Example 334, 3-[4-(7-methoxy-1-methyl-[1,2,4]triazolo[4,3-a]quinoxaline-4-ylamino)-butyl]-1,1-dimethyl-urea], the IC50 under setting [1] is 60 nM.
Consider `COCCOc1ccc2c(c1)nc(NCCCCNC(=O)[C@@H](NC(=O)C(C)(C)C)C(C)C)c1nnc(C)n12` [Example 402, (S)-2-(2,2-dimethyl-propionylamino)-N-{4-[7-(2-methoxy-ethoxy)-1-methyl-[1,2,4]triazolo[4,3-a]quinoxaline-4-ylamino]-butyl}-3-methyl-butyramide], for which the IC50 runs as follows: under setting [2], no more than 50 nM; under setting [1], 18 nM.
In the same order, the values of `COC(=O)c1ccc2nc(NCCCCNC(=O)OC(C)(C)C)c3nnc(C)n3c2c1` [Example 530, 4-(4-tert-butoxycarbonylamino-butylamino)-1-methyl-[1,2,4]triazolo[4,3-a]quinoxaline-8-carboxylic acid methylester] are no more than 50 nM and 34 nM.
In the same order, the values of `COc1ccc2nc(NCCCCNC(=O)[C@@H](O)C(C)C)c3nnc(C)n3c2c1` [Example 126, 2-(S)-hydroxy-N-[4-(8-methoxy-1-methyl-[1,2,4]triazolo[4,3-a]quinoxaline-4-ylamino)-butyl]-3-methyl-butyramide] are no more than 10 nM and 4 nM.
Turning to `Cc1nnc2c(NCCCCNC(=O)[C@@H](NC(=O)[C@H](C)O)C(C)C)nc3cc(N4CCOCC4)ccc3n12` [Example 504, (S)-2-(2-(S)-hydroxy-propionylamino)-3-methyl-N-[4-(1-methyl-7-morpholine-4-yl-[1,2,4]triazolo[4,3-a]quinoxaline-4-ylamino)-butyl]-butyramide hydrochloride], the IC50 was no more than 50 nM under setting [2] and 34 nM under setting [1].
In the same order, the values of `COc1c(C)ccc2c1nc(NCCCCNC(=O)[C@H](O)C(C)C)c1nnc(C)n12` [Example 136, 2-(R)-hydroxy-N-[4-(6-methoxy-1,7-dimethyl-[1,2,4]triazolo[4,3-a]quinoxaline-4-ylamino)-butyl]-3-methyl-butyramide] are no more than 50 nM and 58 nM.
For `Cc1noc(C)c1-c1ccc2c(c1)nc(NCCCCNC(=O)[C@H](O)C(C)C)c1nnc(C)n12` [Example 586, N-{4-[7-(3,5-dimethyl-isoxazol-4-yl)-1-methyl-[1,2,4]triazolo[4,3-a]quinoxaline-4-ylamino]-butyl}-2-(R)-hydroxy-3-methyl-butyramide], the IC50 by setting is: under setting [2], no more than 50 nM; under setting [1], 24 nM.
For `Cc1nnc2c(NCCCCNC(=O)C(C)C)nc3cc(Cl)c(Cl)cc3n12` [Example 29, N-[4-(7,8-dichloro-1-methyl-[,2,4]triazolo[4,3-a]quinoxaline-4-ylamino)-butyl]-isobutyramide], the IC50 under setting [1] worked out at 98 nM.
Still for that read-out and setting: as for `COc1ccc2nc(NCCCCNC(=O)OC(C)(C)C)c3nnc(C)n3c2c1` [Example 121, [4-(8-methoxy-1-methyl-[1,2,4]triazolo[4,3-a]quinoxaline-4-ylamino)-butyl]-carbamic acid-tert-butylester], the figure is 55 nM.
Consider `COCCOc1ccc2c(c1)nc(NCCCCNC(=O)[C@@H](NC(=O)[C@@H](O)C(C)C)C(C)C)c1nnc(C)n12` [Example 404, 2-(S,S)-hydroxy-N-(1-{4-[7-(2-methoxy-ethoxy)-1-methyl-[1,2,4]triazolo[4,3-a]quinoxaline-4-ylamino]-butylcarbamoyl}-2-methyl-propyl)-3-methyl-butyramide], for which the IC50 reads like this: under setting [2], no more than 50 nM; under setting [1], 15 nM.
As to `Cc1nnc2c(NCCCCNC(=O)NC(C)(C)C)nc3ccccc3n12` [Example 22, 1-tert-butyl-3-[4-(1-methyl-[1,2,4]triazolo[4,3-a]quinoxaline-4-ylamino)-butyl]-urea], under setting [1], the IC50 amounted to 81 nM.
Turning to `COc1ccc2c(c1)nc(NCCCCNC(=O)OC(C)C)c1nnc(C(C)C)n12` [Example 628, [4-(1-isopropyl-7-methoxy-[1,2,4]triazolo[4,3-a]quinoxaline-4-ylamino)-butyl]-carbamic acid isopropylester], the IC50 under setting [2] is no more than 50 nM and the half-inhibitory concentration (IC50) under setting [1] is 48 nM.
In the same order, the values of `COc1ccc2c(nc(NCCCCNC(=O)OC(C)(C)C)c3nnc(C)n32)c1Cl` [Example 459, [4-(6-chloro-7-methoxy-1-methyl-[1,2,4]triazolo[4,3-a]quinoxaline-4-ylamino)-butyl]-carbamic acid-tert-butylester] are no more than 50 nM and 30 nM.
Take `Cc1nnc2c(NCCCCOC(=O)c3ccccc3)nc3ccccc3n12` [Example 634, benzoic acid-4-(1-methyl-[1,2,4]triazolo[4,3-a]quinoxaline-4-ylamino)-butylester]: under setting [1], the IC50 turned out to be 91 nM.
Same read-out and setting: for `COc1cc2nc(NCCCCNC(=O)c3ccccc3Cl)c3nnc(C)n3c2cc1C(F)(F)F` [Example 481, 2-chloro-N-[4-(7-methoxy-1-methyl-8-trifluoromethyl-[1,2,4]triazolo[4,3-a]quinoxaline-4-ylamino)-butyl]-benzamide] the value was 51 nM.
As to `COc1cc2nc(NCCCCNC(=O)[C@H](O)C(C)C)c3nnc(C)n3c2cc1C(F)(F)F` [Example 478, 2-(R)-hydroxy-N-[4-(7-methoxy-1-methyl-8-trifluoromethyl-[1,2,4]triazolo[4,3-a]quinoxaline-4-ylamino)-butyl]-3-methyl-butyramide], the IC50 under setting [2] is no more than 50 nM and the IC50 under setting [1] came to 44 nM.
For the compound `Cc1nnc2c(NCCCCNC(=O)C(C)(C)C)nc3ccc(NC(=O)C(C)C)cc3n12` [Example 545], the IC50 under setting [1] was determined as 65 nM.
In the case of `COCCOc1ccc2c(c1)nc(NCCCCNC(=O)C(C)(C)C(F)(F)F)c1nnc(C)n12` [Example 392, 3,3,3-trifluoro-N-{4-[7-(2-methoxy-ethoxy)-1-methyl-[1,2,4]triazolo[4,3-a]quinoxaline-4-ylamino]-butyl}-2,2-dimethyl-propionamide], the IC50 runs as follows: under setting [2], no more than 10 nM; under setting [1], 9 nM.
Take `Cc1nnc2c(NCCCCNC(=O)[C@H](O)C(C)C)nc3ccccc3n12` [Example 9, 2-(R)-hydroxy-N-[4-(1-methyl-[1,2,4]triazolo[4,3-a]quinoxaline-4-ylamino)-butyl]-3-methyl-butyramide]: the IC50 under setting [2] was no more than 50 nM and the IC50 under setting [1] turned out to be 40 nM.
In the case of `Cc1nnc2c(NCCCCNC(=O)c3ccccc3Cl)nc3cc(Cl)c(Cl)cc3n12` [Example 32], the IC50 under setting [1] came to 89 nM.
